Consider two compounds from PMC12115342, “Preparation and Evaluation of Tadalafil-Loaded Nanoemulgel for Transdermal Delivery in Cold-Induced Vasoconstriction: A Potential Therapy for Raynaud’s Phenomenon” (Pharmaceutics, 2025).

One may read the solubility as the concentration that dissolves in the medium under given conditions. A word on the half-life: it is how long it takes for the measured level to halve.

Converted amounts (≈) assume the structure as drawn. Like-named read-outs stand apart in the source and are kept apart here.

On the set-up of series [1]: method as in doi:10.1016/j.jddst.2022.103166. The note with it: cited from earlier work.
Series [2] can be described thus: Equilibrium solubility of TDL in oils, surfactants and cosurfactants. It is filed as physicochemical. On the procedure: The equilibrium solubility of TDL in selected oils was measured by adding an excess quantity of the drug to 1 mL of oils (Miglyol® 812 N, Miglyol® 840, Miglyol® 829, triacetin, isopropyl myristate, castor oil, oleic acid, cinnamon oil, N-methyl pyrrolidone) separately in 1.5 mL stoppered glass vials and mixed by a vortex mixer. Samples were further placed at room temperature (25 ± 1 °C) on a shaker (Incu-Shaker, Benchmark Scientific, Edison, NJ, USA) at 180 rpm for 72 h. The mixture was further centrifuged for 15 min at 3000 rpm. The upper supernatant was removed, and the amount of drug was determined using UV analyzer (Jenway, Staffs, UK) at a lambda max of 284 nm. The data presented in Table 1 are the mean values and standard deviations (SDs) for each oil sample, based on three replicates.
The solubility screening of TDL in various surfactants (Tween 80, Span 80, Cremophor RH 40, PEG-400, propylene glycol, isopropyl alcohol, and Transcutol) was performed following the same procedure as the oil screening. The results presented in the article are the mean values and standard deviations (SDs) for surfactant and cosurfactant samples, based on three replicates.

For series [3] the following is noted: cited from earlier work.
For series [4] the following is noted: cited from earlier work. This is another data set of the same source.

As to `CN1CC(=O)N2[C@H](c3ccc4c(c3)OCO4)c3[nH]c4ccccc4c3C[C@@H]2C1=O` [Tadalafil], the log p in series [1] is recorded as 2.89. Moreover, the solubility at 72 h was found to be 450 ± 30 µg/mL (≈ 1160 µM) in series [2] (25 °C, oil or lipid, thermodynamic from solid, in Castor oil, 25 ± 1 °C, 72 h); 53600 ± 2580 µg/mL (≈ 138000 µM) in series [2] (25 °C, oil or lipid, thermodynamic from solid, in Cinnamon oil, 25 ± 1 °C, 72 h); 330 ± 10 µg/mL (≈ 847 µM) in series [2] (25 °C, oil or lipid, thermodynamic from solid, in Miglyol 812N, 25 ± 1 °C, 72 h); 910 ± 140 µg/mL (≈ 2340 µM) in series [2] (25 °C, oil or lipid, thermodynamic from solid, in Miglyol 829, 25 ± 1 °C, 72 h); 290 ± 10 µg/mL (≈ 745 µM) in series [2] (25 °C, oil or lipid, thermodynamic from solid, in Miglyol 840, 25 ± 1 °C, 72 h); 190 ± 10 µg/mL (≈ 488 µM) in series [2] (25 °C, oil or lipid, thermodynamic from solid, in Oleic acid, 25 ± 1 °C, 72 h). In addition, the solubility at 72 h in series [2] (25 °C, oil or lipid, thermodynamic from solid, in Triacetin, 25 ± 1 °C, 72 h) was found to be 3830 ± 70 µg/mL (≈ 9840 µM); in series [2] (25 °C, organic solvent or mixture, thermodynamic from solid, in Isopropyl alcohol), 510 ± 10 µg/mL (≈ 1310 µM); in series [2] (25 °C, organic solvent or mixture, thermodynamic from solid, in PEG-400), 14000 ± 1010 µg/mL (≈ 35900 µM); in series [2] (25 °C, organic solvent or mixture, thermodynamic from solid, in Propylene glycol), 840 ± 50 µg/mL (≈ 2160 µM); in series [2] (25 °C, organic solvent or mixture, thermodynamic from solid, in Transcutol) it was 33400 ± 1320 µg/mL (≈ 85700 µM); in series [2] (25 °C, thermodynamic from solid, in Cremophor RH 40), 27600 ± 1230 µg/mL (≈ 70800 µM). Moreover, the solubility at 72 h was 325000 ± 4560 µg/mL (≈ 835000 µM) in series [2] (25 °C, thermodynamic from solid, in N-methyl pyrrolidone, 25 ± 1 °C, 72 h); 170 ± 30 µg/mL (≈ 437 µM) in series [2] (25 °C, thermodynamic from solid, in Span 80); 280 ± 10 µg/mL (≈ 719 µM) in series [2] (25 °C, thermodynamic from solid, in Tween 80); roughly 27600 µg/mL (≈ 70800 µM) in series [2] (in Cremophor RH 40); roughly 33400 µg/mL (≈ 85700 µM) in series [2] (in Transcutol). For the same compound, the half-life in series [3] was 15 to 17 h. For the same compound, the water solubility in series [4] was 3.2 µg/mL (≈ 8.22 µM). Besides, the solubility in water in series [4] (lower literature value) is 0.73 µg/mL (≈ 1.87 µM); in series [4] (upper literature value), 3.48 µg/mL (≈ 8.94 µM).
On to `CCCc1nn(C)c2c(=O)[nH]c(-c3cc(S(=O)(=O)N4CCN(C)CC4)ccc3OCC)nc12` [sildenafil], for which the half-life in series [3] was 3.8 h.
